Results: US20220242894A1, “Ruthenium (II) Complexes and Their Use as AntiCancer Agents” (Paris Sciences et Lettres, priority 2019, published 2022)
Read-outs that look alike come from different tables or passages of the source.

Key:
[1] = system: CT-26 (mouse colon adenocarcinoma); assay: Cytotoxicity, fluorometric cell viability assay (resazurin), CT-26; type: cell-based; conditions: read-out: IC50 (μM) CT-26
Procedure: (§1) HeLa and CT-26 cell lines were cultured in DMEM media (Gibco) supplemented with 10% of fetal calf serum (Gibco). CT-26 LUC cell line was cultured in DMEM media (Gibco) supplemented with 10% of fetal calf serum (Gibco) and 1% Genticin. RPE-1 cell line was cultured in DMEM/F-12 media (Gibco) supplemented with 10% of fetal calf serum. […] The resistance of A2780 cis was maintained by cisplatin treatment (1 μM) for one week every month. […] U87 cell line was cultured in MEM media (Gibco) supplemented with 10% of fetal calf serum (Gibco) and 1% of non-essential amino acid mixture (Gibco). Cell lines were complemented with 100 U/ml penicillin-streptomycin mixture (Gibco) and maintained in humidified atmosphere at 37° C. and 5% of CO2.
(§2) Cytotoxicity of the tested Ru compounds according to the present invention was assessed by a fluorometric cell viability assay using Resazurin (ACROS Organics). […] After 24 h, cells were treated with increasing concentrations of the compounds. Compounds dilutions were prepared as follows: 2.5 mM stock in DMSO was further diluted to 100 μM with media and then filtrated. After 48 h incubation, medium was removed, and 100 μl of complete medium containing resazurin (0.2 mg/ml final concentration) was added. […] IC50 values were then calculated using GraphPad Prism software.

[2] = system: A2780 cis (human cisplatin resistant ovarian carcinoma); assay: Cytotoxicity, fluorometric cell viability assay (resazurin), A2780 cis; type: cell-based; conditions: read-out: IC50 (μM) A2780 cis
Procedure: as §1, §2

[3] = system: A2780 (human ovarian carcinoma); assay: Cytotoxicity, fluorometric cell viability assay (resazurin), A2780; type: cell-based; conditions: read-out: IC50 (μM) A2780
Procedure: as §1, §2

[4] = system: RPE-1 (normal retina pigmented epithelial); assay: Cytotoxicity, fluorometric cell viability assay (resazurin), RPE-1; type: cell-based; conditions: read-out: IC50 (μM) RPE-1
Procedure: as §1, §2

[5] = system: CT-26 LUC (mouse colon adenocarcinoma stably expressing luciferase); assay: Cytotoxicity, fluorometric cell viability assay (resazurin), CT-26 LUC; type: cell-based; conditions: read-out: IC50 (μM) CT-26 luc
Procedure: as §1, §2

HeLa (human cervical) = assay: Cytotoxicity, fluorometric cell viability assay (resazurin), HeLa; type: cell-based; conditions: read-out: IC50 (μM) HeLa
Procedure: as §1, §2

[6] = system: A2780 ADR (human doxorubicin resistant ovarian carcinoma); assay: Cytotoxicity, fluorometric cell viability assay (resazurin), A2780 ADR; type: cell-based
Procedure: as §1, §2

solid Ehrlich tumour [7] = assay: Survival of mice bearing solid Ehrlich tumour; type: in vivo; conditions: 5 mg/kg i.p. on days 1 and 7, tumour-bearing NMRI mice
Excerpt: A solid Ehrlich tumour was purchased from the Research Institute for Pharmacy and Biochemistry (VUFB) in Prague, and then maintained in NMRI mice by periodical transplantations. […] On the tenth day, half of the mice were sacrificed, and their tumours were weighed. The remaining animals were left in order to observe their survival.
One-Way Analysis of Variance with post-hoc Dunnetts's multiple comparison test was used to detect differences in tumour weight. Kaplan-Meier curves (FIG. 4) and logrank tests were used to compare survival times in groups. Here, the level of significance was α=0.05.

solid Ehrlich tumour [8] = assay: Tumour weight, solid Ehrlich tumour, day 10; conditions: 5 mg/kg i.p. on days 1 and 7, measured on day 10
Excerpt: Values are the means±SEM (n=7 in each group).
A solid Ehrlich tumour was purchased from the Research Institute for Pharmacy and Biochemistry (VUFB) in Prague, and then maintained in NMRI mice by periodical transplantations. […] On the tenth day, half of the mice were sacrificed, and their tumours were weighed.
One-Way Analysis of Variance with post-hoc Dunnetts's multiple comparison test was used to detect differences in tumour weight.

HeLa cells [9] = assay: Ruthenium cellular uptake and subcellular distribution by ICP-MS, HeLa; type: cell-based, human; conditions: 5 μM
Procedure: All the treatments were set up at the same concentration for comparative purposes. The medium was then removed, the cells washed with PBS and trypsinized. […] The organelles were then isolated via differential centrifugation. To separate lysosomes, a Lysosome Isolation Kit (Cat. Nr: LYSISO1, Sigma Aldrich) as well as the manufacturer procedure with minor modification was used. Briefly, the collected pellets were redissolved in 2.0 ml of extraction buffer added with proteases cocktail (delivered with the kit) and incubated for 15 min on ice. The samples were then homogenized with a pre-chilled dounce homogenizer (7 ml, tight pestle A, 22 strokes) and centrifuged at 1000 g for 10 min at 4° C. […] These steps of the isolation procedure were monitored under phase contrast microscope on Menzel-Glaser coverslips (Olympus IX81 microscope).
The supernatant was transferred in a fresh tube and centrifuged at 14000 g for 30 min at 4° C. […] The intact lysosomal content was proofed with Neutral-Red Reagent (delivered in the kit) with dual-wavelength absorbance mode at 460 and 510 nm over a kinetic of 3 minutes in a Spectramax M5 microplate reader (Molecular Devices). […]
Ruthenium content of the samples was determined by means of a 7-step serial dilution in the range between 0 and 300 ppb in Ru (R>0.99) with a background equivalent concentration of BEC: 6.3 ppt and a detection limit of DL: 17 ppt. […]

[10] = system: glycolysis in CT-26 cells; assay: Seahorse glycolytic stress test; type: cell-based, mouse; conditions: CT-26, 1 μM, 24 h incubation
Procedure: (§3) The preference of compound 1 to accumulate in the nucleus and mitochondria in HeLa cells inspired further studies on metabolic pathways that could be affected by the compound. For this purpose, Seahorse XF Analyzer was used. […] The effect on the other metabolic pathways, i.e. glycolysis and the possible metabolic modulation of the three primary fuel pathways, i.e. glucose, glutamine and fatty acid were then examined.
CT-26 cells were seeded in Seahorse XFe96 well plates at a density of 30,000 cells/well in 80 μL. […] After 24 h of incubation, the regular media was removed and the cells were washed thrice using bicarbonate, glucose and serum free DMEM, supplemented 1% glutamine and 1% sodium pyruvate and incubated in a non-CO2 incubator at 37° C. for an hour. Glycolytic stress test was run using glucose, 10 mM, Oligomycin, 1 μM and 2-Deoxyglucose, 50 mM in ports A, B and C respectively using Seahorse XFe96 Extracellular Flux Analyzer.

[11] = system: mitochondrial metabolism (oxidative phosphorylation) in CT-26 cell line; assay: Seahorse Mitostress test; type: cell-based, mouse; conditions: CT-26, 1 μM, 24 h incubation
Procedure: as §3
CT-26 cells were seeded in Seahorse XFe96 well plates at a density of 30,000 cells/well in 80 μL. […] After 24 h of incubation, the regular media was removed and the cells were washed thrice using bicarbonate and serum free DMEM, supplemented with glucose, 1.8 mg/mL; 1% glutamine and 1% sodium pyruvate and incubated in a non-CO2 incubator at 37° C. for 1 h. Mitostress assay was run using Oligomycin, 1 μM, FCCP 1 μM and mixture of Antimycin-A/Rotenone 1 μM each in ports A, B and C respectively using Seahorse XFe96 Extracellular Flux Analyzer.

HeLa cells [12] = assay: Annexin V/PI assay (cell death mechanism); conditions: 10 μM
Excerpt: For this experiment, Annexin V and PI staining method were utilised on HeLa cells.^15 Staurosporin, a known inducer of apoptosis, was used as a positive control.

[13] = system: MRC-5 (normal lung fibroblasts); assay: Ruthenium cellular accumulation by ICP-MS, MRC5
Procedure: All the fractions (mitochondria, lysosomes and nucleus) were isolated from the same cellular sample for direct comparative purposes. The supernatant phases discarded during the isolation of nuclei, lysosomes and mitochondria procedures were collected and formed the “residual” fraction. An aliquot of crude lysate after homogenization, nuclear, mitochondrial (pellet lysed via freeze and thaw cycles followed by 20 minutes incubation in ultrasonic bath), lysosomal and residual fraction was each used for protein quantification using the Bradford method. The isolated samples were then lyophilized on an Alpha 2-4 LD plus (CHRIST). The resulting samples underwent chemical digestion with 10 mL of a 2% nitrohydrochloric acid solution for 24 h. The resulting suspensions were filtered on 0.20 μm non-pyrogenic sterile Filtropur filters (Sarstedt) and the obtained samples were injected in ICP-MS.
Ruthenium content of the samples was determined by means of a 7-step serial dilution in the range between 0 and 300 ppb in Ru (R>0.99) with a background equivalent concentration of BEC: 6.3 ppt and a detection limit of DL: 17 ppt. […] A solution of Indium (500 ppb) and Tungsten (500 ppb) was used as internal standard.

[14] = system: fuel pathways (glucose, glutamine, fatty acid) in CT-26 cells; assay: Seahorse fuel flex assay; type: cell-based, mouse; conditions: CT-26, 1 μM, 24 h incubation
Procedure: as §3
CT-26 cells were seeded in Seahorse XFe96 well plates at a density of 30,000 cells/well in 80 μL. […] After 24 h of incubation, the regular media was removed and the cells were washed thrice using bicarbonate, and serum free DMEM, supplemented with 1.8 mg/mL glucose, 1% glutamine and 1% sodium pyruvate and incubated in a non-CO2 incubator at 37° C. for an hour. Fuel flex assay for the different fuel pathways viz. glucose, glutamine and fatty acid was studied by measuring the basal oxygen consumption rates and that after addition of the inhibitor of the target pathway in port A and a mixture of the inhibitors of the other two pathways in port B. This gave a measure of the dependency of the cells on a fuel pathway. To study the capacity of a certain fuel pathway, the sequence of addition of the inhibitors was reversed. In port A was added the mixture of inhibitors for the other pathways and in port B was added the inhibitor for the target pathway. […]

[15] = Dose-finding study, maximum tolerated dose; conditions: healthy mice, i.p., weight loss limit 10% over 14 days
[16] = Encapsulation in polysorbate 80 (film rehydration); type: physicochemical; conditions: in 50 mg/mL of polysorbate 80 in PBS, after 0.20 μm filtration
Procedure: The solvent was removed by rotary evaporation at 40° C. The red film was then resuspended in PBS (2 mL) at room temperature. The solution was finally sterile filtered on a 0.20 μm nylon membrane (Corning© 431224) to yield a clear red solution.
50 μL of the sample was diluted in 100 μL of acetonitrile and the absorbance was recorded at 480 nm in 96 wells plates from Corning© (Fisher Scientific 15329740) using a SpectraMax M5 microplate Reader.
Encapsulation efficiency was calculated by comparing the absorbance of the solution before and after filtration using the following equation.
To ensure its repeatability, the procedure was performed in triplicate.

[17] = A2780 cis (cisplatin resistant), 48 h incubation
[18] = RPE-1 normal cells, 48 h incubation
[19] = A2780 ADR (doxorubicin resistant), 48 h incubation; read-out: IC50 (μM) A2780 ADR
[20] = Mus musculus, CT26, CT-26, 48 h incubation
[21] = Homo sapiens, A2780cis, A2780 cis (cisplatin resistant), 48 h incubation
[22] = Homo sapiens, A2780, 48 h incubation
[23] = Homo sapiens, RPE-1 normal cells, 48 h incubation
[24] = Mus musculus, CT26, CT-26 luc, 48 h incubation
[25] = Homo sapiens, A2780 ADR, 48 h; read-out: IC50 (μM) A2780 ADR

Row | Molecule | IC50 [1, 20] [µM] | IC50 [2, 21] [µM] | IC50 [3, 22] [µM] | IC50 [4, 23] [µM] | IC50 [5, 24] [µM] | IC50 (HeLa (human cervical); Homo sapiens, 48 h incubation) [µM] | IC50 [6, 25] [µM] | also measured
1 | [Ru(DIP)2(Tetrabromocat)] [Compound 5] |  |  |  |  |  |  |  | IC50 ([1]; CT-26, 48 h incubation): 10.5 ± 0.5 µM; IC50 [2, 17]: 17.2 ± 1.4 µM; IC50 ([3]; A2780, 48 h incubation): 10.2 ± 0.14 µM; IC50 [4, 18]: 23.2 ± 2.5 µM; IC50 ([5]; CT-26 luc, 48 h incubation): 11.6 ± 0.7 µM; IC50 (HeLa (human cervical); 48 h incubation): 10.5 ± 0.25 µM; IC50 [6, 19]: 15 ± 0.75 µM
2 | Cc1ccc(O)c(O)c1 [4-methylcatechol] | 34.4 ± 1.41 | 34.6 ± 1.49 | 15.2 ± 1 | > 100 | 33.3 ± 3.4 | > 100 | 29.3 ± 1.96 | 
3 | Cc1cccc(O)c1O [3-methylcatechol] | 17.5 ± 0.73 | 14.7 ± 0.69 | 9.99 ± 1.26 | > 100 | 12.1 ± 1.4 | > 100 | 2.71 ± 0.82 | 
4 | N.N.[Cl][Pt][Cl] [Cisplatin] |  |  |  |  |  |  |  | IC50 ([1]; CT-26, 48 h incubation): 2.6 ± 0.18 µM; IC50 [2, 17]: 18.3 ± 2.92 µM; geometric mean of overall survival (solid Ehrlich tumour [7]): 33.7 days; IC50 ([3]; A2780, 48 h incubation): 4 ± 0.76 µM; IC50 [4, 18]: 30.2 ± 5.11 µM; effect on tumour growth (tumour weight) (solid Ehrlich tumour [8]): significant inhibitory effect; IC50 ([5]; CT-26 luc, 48 h incubation): 2.42 ± 0.23 µM; IC50 (HeLa (human cervical); 48 h incubation): 9.28 ± 0.2 µM; IC50 [6, 19]: 8.32 ± 0.71 µM
5 | [Ru(DIP)2(Sq)](PF6) [Compound 1] |  |  |  |  |  |  |  | subcellular accumulation of ruthenium (HeLa cells [9]; 2 h, fractionated): preferential accumulation inside the nucleus; cellular uptake (internalization) (HeLa cells [9]; after 2 h): Near complete internalization; glycolysis of the cells [10]: not affected; ATP production [11]: inhibited; mitochondrial respiration [11]: severely impaired; induction of apoptosis/necrosis (HeLa cells [12]; 30 min after treatment): induces apoptosis; type of cell death (HeLa cells [12]; 4 h or 24 h incubation): apoptosis as a main type of the cell death; compound taken up by healthy cells [13]: less than 25%; effect on the 3 primary fuel pathways [14]: no direct effect; maximum tolerated dose (MTD) [15]: 15 mg/kg of body weight
6 | COc1cccc(O)c1O [3-methoxycatechol] | 45.7 ± 4.21 | 36.5 ± 1.94 | 18.7 ± 1.17 | > 100 | 36.4 ± 6.28 | 56.2 ± 4.18 | 30.1 ± 1.35 | 
7 | Oc1ccccc1O [catechol] | 16 | 56 ± 9.46 | 22.4 ± 5.83 | > 100 | 11.5 ± 0.4 | > 100 | > 100 | 
8 | Oc1c(O)c(Br)c(Br)c(Br)c1Br [Tetrabromocatechol] |  |  |  |  |  |  |  | IC50 ([1]; Mus musculus, CT26, 48 h): 5.53 ± 0.37 µM; IC50 ([2]; Homo sapiens, A2780cis, 48 h): 13.6 ± 0.88 µM; IC50 ([3]; Homo sapiens, A2780, 48 h): 8.75 ± 0.2 µM; IC50 ([4]; Homo sapiens, RPE-1, 48 h): 13.5 ± 1.7 µM; IC50 ([5]; Mus musculus, CT26, 48 h): 3.8 ± 0.34 µM; IC50 (HeLa (human cervical); Homo sapiens, 48 h): 29.9 ± 1.6 µM; IC50 ([6]; Homo sapiens, A2780 ADR, 48 h, read-out: IC50 (μM) A2780 ADR): 14.4 ± 1.18 µM
9 | CC(C)(C)c1ccc(O)c(O)c1 [4-tertbutylcatechol] | 9.94 ± 0.63 | 14.6 ± 0.81 | 9.14 ± 0.7 | 55.1 ± 4.64 | 9.72 ± 0.67 | 93.1 ± 9.8 | 12.9 ± 1.2 | 
10 | [Ru(DIP)2(3-Methoxysq)](PF6) [Compound 4] |  |  |  |  |  |  |  | concentration dissolved [16]: 840 ± 60 µg/mL
11 | COc1cccc2c1C(=O)c1c(O)c3c(c(O)c1C2=O)C[C@@](O)(C(=O)CO)C[C@@H]3O[C@H]1C[C@H](N)[C@H](O)[C@H](C)O1 [Doxorubicin] | 0.082 ± 0.003 | 0.54 ± 0.04 | 0.19 ± 0.03 | 0.89 ± 0.17 |  | 0.34 ± 0.02 | 5.94 ± 0.58 | 
12 | Ru(DIP)2(4-Nitrocat) [Compound 8] |  |  |  |  |  |  |  | IC50 ([1]; CT-26, 48 h incubation): 7.61 ± 0.11 µM; IC50 [2, 17]: 16.4 ± 2.04 µM; IC50 ([3]; A2780, 48 h incubation): 12.4 ± 0.8 µM; IC50 [4, 18]: 16.6 ± 0.98 µM; IC50 ([5]; CT-26 luc, 48 h incubation): 9.01 ± 0.19 µM; IC50 (HeLa (human cervical); 48 h incubation): 10 ± 0.44 µM; IC50 [6, 19]: 18.6 ± 2.02 µM
13 | Cc1occc(=O)c1O [Maltol, 3-Hydroxy-2-methyl-4H-pyran-4-one] | > 100 | > 100 | > 100 | > 100 | > 100 | 74 ± 14.6 | > 100 | 
14 | [Cl-].[Cl-].[Ru+2].c1ccc(-c2ccnc3c2ccc2c(-c4ccccc4)ccnc23)cc1.c1ccc(-c2ccnc3c2ccc2c(-c4ccccc4)ccnc23)cc1 [Ru(DIP)2Cl2] |  |  |  |  |  |  |  | IC50 ([1]; CT-26, 48 h incubation): 9.2 ± 1.22 µM; IC50 [2, 17]: 6.36 ± 0.57 µM; IC50 ([3]; A2780, 48 h incubation): 4.69 ± 0.14 µM; IC50 [4, 18]: 3.13 ± 0.07 µM; IC50 ([5]; CT-26 luc, 48 h incubation): 6.65 ± 0.5 µM; IC50 (HeLa (human cervical); 48 h incubation): 15 ± 0.4 µM; IC50 [6, 19]: 78.3 ± 4.9 µM
15 | O=[N+]([O-])c1ccc(O)c(O)c1 [4-nitrocatechol] | 17.5 ± 1.02 | > 100 | 30.9 ± 2.05 | 45 ± 19 | 15.3 ± 1 | > 100 | 61.5 ± 3.63 | 
